In paper PMC9576799, “Discovery of small molecule inhibitors that effectively disrupt IQGAP1-Cdc42 interaction in breast cancer cells” (Scientific Reports, 2022):

Tests used:
control MCF7 cells = test: CellTiter-Glo cell viability assay, control MCF7; format: cell-based, human; settings: 72 h
Procedure: Selected hit compounds were tested in CellTiterGlo cell viability assays to determine their cytotoxic effect on IQGAP1 knockout and control MCF7 cells. Prior to the assay, we assessed cell proliferation to keep both cell lines at similar exponential growth rates within 80 h after plating. For this purpose, the cells were plated onto 384-well clear bottom black plates (Perkin Elmer, Ultra) at various cell densities (between 625 and 10,000 cells/50µL/well), spun down for 15 s, and placed into Incucyte SX5 (Essen BioScience) for automated bright-field channel reading every 4 h. […] For the cytotoxicity assays, cells were harvested with 0.05% trypsin, spun down at 125xg for 5 min, re-suspended in fresh DMEM supplemented with 5% (v/v) FBS, and seeded into 1536-well white solid bottom tissue culture-treated plates (Greiner One, #789173-F) at 600 cells/5µL/well for knockout cells and 300 cells/5µL/well for control cells using a Multidrop Combi dispenser (Thermo Fisher Scientific Inc.). One column on each plate was dispensed with growth medium only (no cells) to gauge the maximal potential cytotoxic effect (IC100 control). The plates were kept in a tissue culture incubator at 37 °C with 5% CO2 for ~ 20 h for attachment and recovery of the cells. The next day, selected compounds were pin-transferred into the wells in columns 5–48, 23nL/well at 7-point 1:3 serial dilution, in the range of 46 µM to 78 nM final assay concentration. DMSO was used as the vehicle control (IC0). The plates were covered with stainless steel cell culture Kalypsys lids and incubated at 37 °C with 5% CO2 under 95% humidity for 72 h.
Plates and reagents were equilibrated to room temperature and then 5 µL/well of CellTiter Glo (Promega, #G7570) reagent was dispensed with a Multidrop Combi dispenser to the assay plates. After incubation for 10 min at ambient temperature, the luminescence signal was read with a ViewLux instrument (Perkin Elmer) with one second exposure. Relative luminescent units (RLU) for each well were normalized to the median RLUs from DMSO control wells as […] and “no cells” control wells as 100% viability.

[1] = tested on: filopodia in MDA-MB-231 cells; test: Filopodia quantification by confocal microscopy (FiloQuant); format: cell-based, human; settings: 50 μM 2 h, EGF-stimulated
Procedure: MDA-MB231 cells were cultured in 24-well plates containing glass coverslips. When 60% confluent, cells were serum starved for 16 h, preincubated with 50 μM compound NCGC00131308 for 2 h, then incubated with 100 ng/mL epidermal growth factor (EGF) or vehicle for 10 min. Cells were fixed with 4% PFA and stained with Alexa Fluor 488 Phalloidin (Invitrogen™#A12379) and Hoechst 33342 (BD Biosciences #561908) to visualize F-actin and DNA, respectively. Coverslips were mounted with ProLong glass antifade mounting medium (Invitrogen), then imaged with a Zeiss LSM880 confocal microscope using a 63× objective lens. Cells and filopodia were segmented using FIJI/ImageJ[49]. Individual filopodia were segmented using the FiloQuant FIJI plugin[50]. Cells were segmented by Voronoi tessellation using Hoechst 33342 stained nuclei as seed points. The segmented images were quantified using the scikit-image Python package. The following geometric and spatial parameters of the filopodia were quantified: (1) the branch length of each filopodial segment, (2) cumulative area of each segment, (3) eccentricity, defined as the […], and (4) the number of filopodial segments per unit exposed cell membrane. Further data handling and plotting were done using the tidyverse R package. At least 200 cells were analyzed for each condition.

MCF7-siIQ8 cells = test: CellTiter-Glo cell viability assay, IQGAP1 knockdown MCF7; format: cell-based; settings: Homo sapiens
Procedure: Selected hit compounds were tested in CellTiterGlo cell viability assays to determine their cytotoxic effect on IQGAP1 knockout and control MCF7 cells. Prior to the assay, we assessed cell proliferation to keep both cell lines at similar exponential growth rates within 80 h after plating. For this purpose, the cells were plated onto 384-well clear bottom black plates (Perkin Elmer, Ultra) at various cell densities (between 625 and 10,000 cells/50µL/well), spun down for 15 s, and placed into Incucyte SX5 (Essen BioScience) for automated bright-field channel reading every 4 h. […] For the cytotoxicity assays, cells were harvested with 0.05% trypsin, spun down at 125xg for 5 min, re-suspended in fresh DMEM supplemented with 5% (v/v) FBS, and seeded into 1536-well white solid bottom tissue culture-treated plates (Greiner One, #789173-F) at 600 cells/5µL/well for knockout cells and 300 cells/5µL/well for control cells using a Multidrop Combi dispenser (Thermo Fisher Scientific Inc.). […]
Plates and reagents were equilibrated to room temperature and then 5 µL/well of CellTiter Glo (Promega, #G7570) reagent was dispensed with a Multidrop Combi dispenser to the assay plates. After incubation for 10 min at ambient temperature, the luminescence signal was read with a ViewLux instrument (Perkin Elmer) with one second exposure. […]

Compound CCN(CC)CCn1c2ccccc2c2nc3ccc([N+](=O)[O-])cc3cc21 [MLS000332963] has a cytotoxicity efficacy (control MCF7 cells) of 47% and an EC50 (control MCF7 cells; read-out: cytotoxicity EC50) of 20000 nM.
For CCN1CCN(c2ncc3c(n2)CCN(Cc2cc(Br)cs2)C3)CC1 [NCGC00131308], the “filopodia area” value [1] was “significantly decreased”, the “filopodia length” value [1] was “significantly decreased” and the “filopodia shape (eccentricity)” value [1] was “reduced eccentricity”. For the same compound, the “number of filopodia per cell” value [1] was “significantly decreased”.
Cc1cccc(NC(=O)c2c(NC(=O)C(F)(F)F)sc3c2CCCCC3)c1 [NCGC00098561] gave an IC50 (control MCF7 cells; Homo sapiens, read-out: cytotoxicity EC50) of 2240 nM, an Emax (control MCF7 cells; Homo sapiens, read-out: cytotoxicity efficacy) of ~100% and an Emax (MCF7-siIQ8 cells; MCF7, 72 h, read-out: cytotoxicity efficacy) of ~100%. It also gave an IC50 (MCF7-siIQ8 cells; IQGAP1 knockdown MCF7-siIQ8 cells, 72 h, read-out: cytotoxicity EC50) of 2240 nM.
